# Test results as given in patent USRE43748E1, “Nitrogen-containing heterocyclic carboxamide derivatives or salts thereof and antiviral agents comprising the same” (priority 1998, dated 2012).
# Legend:
# [1] = test system: rhino virus typeII strain; assay: Anti-rhino activity, plaque inhibition in HeLa cells; type: cell-based; conditions: 72 h, plaque number, 30 μg/ml of compound, 3 days at 33° C., read-out: Inhibition percent (%)
# [2] = test system: Vero cell (monkey kidney cell); assay: Cytotoxic activity, XTT method; type: cell-based; conditions: Primates, 96 h, Vero cells, cultured 4 days, read-out: 50% cell growth inhibitory concentration (IC50)
smiles,measurement,setting,value
"CC(=O)NC(=O)c1nccnc1O [No. 3, N^2-acetyl-3-hydroxy-2-pyrazinecarboxamide]",inhibition at 30 µg/mL,[1],47.2%
"NC(=O)c1nccnc1O [No. 1, 3-hydroxy-2-pyrazinecarboxamide]",IC50,[2],≥ 250 µg/mL
